From patent publication US6642003B2, “Human glucose-dependent insulin-secreting cell line” (Cedars-Sinai Medical Center, priority 2001, dated 2003)

Key:
[1] = test system: PANC-1/IDX-1 cells; test: Flow cytometric (FACS) analysis for insulin, PANC-1/IDX-1 cells; assay type: cell-based, human; settings: GLP-1 10 nM, 72 h
Experimental: PANC-1 cells were transfected with a pcDNA3 construct (Invitrogen; Carlsbad, Calif.) harboring the wild-type full-length IDX-1 cDNA using LipoTAXI (Catalog N. 204110; Mammalian Transfection Kit, Stratagene; La Jolla, Calif.). Control cells were transfected with the vector alone. The selection of positive (i.e. transfected) cells was carried out by culturing the cells in the presence of 400 μg/ml of G418 sulfate (GN-04, Omega; Tarzana, Calif.).
For fluorescence-activated cells sorting (FACS) analysis, cells were cultured in the presence of GLP-1 (10 nM), or vehicle, for 72 h, then washed with cold PBS (pH 7.4; three times) and incubated overnight, on ice, in PBS with 2% paraformaldehyde. After centrifugation, the cell pellet was resuspended in 400 μl of cold 0.1% Triton diluted in FACS buffer (PBS with 2% FCS). After several centrifugation and washes, the cells were resuspended in the assay buffer with of 10 μl of fluorescent-conjugated insulin antibody (Cat N. FM205, FITC: Chromaprobe, Inc; Mountain View, Calif.), in the presence of 10 μl of blocking antibody (anti-mouse IgG; Organon Teknika-Cappel, West Chester, Pa.). […] Flow cytometric analysis was performed with a FACScan[R] cytometer, using the LYSYS II program, and by fluorescence microscopy, as is well known in the art. […]

[2] = test system: PANC-1 cells; test: Morphological changes (hematoxylin and eosin), parental PANC-1 cells; assay type: cell-based, human; settings: GLP-1 10 nM for 72 h
Description: Hematoxylin and eosin staining was employed, in some experiments, to show the morphological changes observed under the experimental conditions described below.

[3] = test system: ARIP cells; test: Flow cytometric (FACS) analysis for insulin, ARIP cells; assay type: cell-based, rat; settings: GLP-1 10 nM, 72 hours
Experimental: For fluorescence-activated cells sorting (FACS) analysis, cells were cultured in the presence of GLP-1 (10 nM), or vehicle, for 72 h, then washed with cold PBS (pH 7.4; three times) and incubated overnight, on ice, in PBS with 2% paraformaldehyde. After centrifugation, the cell pellet was resuspended in 400 μl of cold 0.1% Triton diluted in FACS buffer (PBS with 2% FCS). After several centrifugation and washes, the cells were resuspended in the assay buffer with of 10 μl of fluorescent-conjugated insulin antibody (Cat N. FM205, FITC: Chromaprobe, Inc; Mountain View, Calif.), in the presence of 10 μl of blocking antibody (anti-mouse IgG; Organon Teknika-Cappel, West Chester, Pa.). Control samples were treated with PBS, without the primary antibody, and then incubated with an […] FITC-conjugated control antibody (murine IgG; Chromaprobe Inc., Mountain View, Calif.). Flow cytometric analysis was performed with a FACScan[R] cytometer, using the LYSYS II program, and by fluorescence microscopy, as is well known in the art. See, e.g., E. Elstner, M. Linker-Israeli, J. Le, T. Umiel, P. Michl, J. W. Said, L. Binderup, J. C. […]

[4] = test system: ARIP cells; test: RT-PCR of islet β-cell specific transcripts, ARIP cells; assay type: cell-based, rat
Experimental: After the treatment of ARIP and PANC-1 cells with GLP-1, Exendin-9, or vehicle, for the described length of time and the various doses, the culture medium was removed and the cells were washed (twice) with serum-free medium. Total RNA was isolated using the TRiazol-method (Gibco-BRL), and treated with DNase (Amplification Grade, GibcoBRL) in 20 mmol/l Tris-HCL (pH 8.4), 2 mmol/l MgCl2, and 50 mmol/l KCl to remove any traces of contaminating genomic DNA. RNA (2.5 μg) was then subjected to reverse transcription (RT reagents; Promega; Madison, Wis.). RT-PCR was undertaken in a volume of 50 μl of buffer containing 50 mmol/l KCl, 10 mmol/l Tris-HCl, 3.5 mmol/l MgCl2, 200 μmol/l each dNTPs, and 0.4 μmol/l each of sense and antisense primers to rat or human insulin (depending on the specific cell from which the RNA was extracted). Amplification was performed for 30 cycles at the denaturing temperature of 94° C. for 1 min, annealing temperature of 60° C. for 45 sec, and an extension temperature of 72° C. for 1 min. […] These included more irregular and variable cell shapes, with a cytoplasm less homogenous and “rougher” in appearance than control culture.
Treatment with GLP-1 induces the differentiation of ductal epithelial cells into insulin-producing cells. FIG. 2 illustrates a series of cell cultures grown with or without GLP-1 (10 nM) for 72 h. […] Preabsorption of the antibody with an excess of human recombinant insulin prevented the staining of insulin-positive GLP-1 treated cells (data not shown). While treatment with GLP-1 turned the majority of ARIP cells into […] For β-actin, the annealing temperature was raised to 64° C. for 1 min and gene-specific primers were used. For GLP-1-receptor (GLP-R) the annealing temperature used was 55° C. All other experimental conditions to amplify GLUT2, glucokinase, and GLP-R mRNAs were identical to those described for the amplification of insulin mRNA. RT and PCR conditions for human transcripts were identical to those described for rat mRNAs.
Southern blotting with species-specific full length cDNA probes for insulin, GLUT-2, glucokinase, GLP-1 receptor and β-actin was performed as previously described. Y. Wang, R. Perfetti, N. H. Greig, H. W. Holloway, K. A. DeOre, C. Montrose-Rafizadeh, D. Elahi, J. M. Egan, “Glucagon-like peptide-1 can reverse the age-related decline in glucose tolerance in rats.” J Clin Invest 99:2883-2889, 1997.

glucagon-like peptide-1 [GLP-1]
cultured cells converted from insulin negative to insulin positive [1]: 61.7%
morphological change [2]: did not respond
cells reacting with anti-human insulin antibody [3]: 72.6%
time of first detection of GLUT2 mRNA ([4]; GLP-1 10 nM): 24 h
time of first detection of glucokinase mRNA ([4]; GLP-1 10 nM): 72 h
time of first detection of insulin mRNA ([4]; GLP-1 10 nM): 48 h
lowest concentration of GLP-1 required for the initial detection of insulin mRNA ([4]; data not shown): 1 nM
